Values quoted from earlier work, collected in patent US20060105063A1, “Synergic combination of compositions containing aloe vera isolates and their therapeutic application” (priority 2004, published 2006).

Legend:
[1] = tested on: animals ingesting a diet composed of 20% Fucose

C[C@H](O)[C@@H](O)[C@@H](O)[C@H](O)C=O [Fucose]
Oral dose considered safe (healthy 150-pound adult): ≤ 34 grams
Rate of excretion, mainly in the urine (humans): approximately 17 micrograms per minute
Time to elimination from the bloodstream (oral, after maximum blood levels): eight to twelve
Microscopic examination of liver, kidney, pancreas and sternal bone marrow ([1]; Fucose-treated rats): no abnormalities
Oral toxicity ([1]; animals ingesting a diet composed of 20% Fucose): reduce nerve conduction velocity as well as collagen production
